Data taken from patent publication US20040039053A1, “Use of(-) (3-halomethylphenoxy) (4-halophenyl) acetic acid derivatives for treatment of insulin resistance, type 2 diabetes, hyperlipidemia and hyperuricemia” (priority 2000, published 2004).
“And” between values parts separate entries of the source, which are not always exact repeats. Equal entries are not always repeated. Where two headings read alike, the source gives them in different places.

Experiments:
CYP1A2 = molecular target: T1, CYP1A2 (Homo sapiens, UniProt P05177); settings: both, 30 min
T1 sequence (P05177 1-516): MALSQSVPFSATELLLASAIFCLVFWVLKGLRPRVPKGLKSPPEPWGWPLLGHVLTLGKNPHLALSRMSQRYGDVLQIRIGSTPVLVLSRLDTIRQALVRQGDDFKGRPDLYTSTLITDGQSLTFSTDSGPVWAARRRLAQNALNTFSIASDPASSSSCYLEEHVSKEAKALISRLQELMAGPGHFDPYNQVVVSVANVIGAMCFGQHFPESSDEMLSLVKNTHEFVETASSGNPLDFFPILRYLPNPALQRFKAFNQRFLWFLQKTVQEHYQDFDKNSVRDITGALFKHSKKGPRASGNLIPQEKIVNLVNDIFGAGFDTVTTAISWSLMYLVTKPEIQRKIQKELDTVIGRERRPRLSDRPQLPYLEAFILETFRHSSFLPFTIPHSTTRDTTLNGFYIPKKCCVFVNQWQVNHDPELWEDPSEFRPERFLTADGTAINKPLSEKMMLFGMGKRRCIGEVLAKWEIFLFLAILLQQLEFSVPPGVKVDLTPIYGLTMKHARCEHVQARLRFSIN

CYP2C19 = CYP2C19 (Homo sapiens, UniProt P33261); assay: Cytochrome P450 isoform inhibition in human hepatic microsomes, S-mephenytoin (Example 18); type: in vitro ADME
Chain of CYP2C19 (P33261 whole entry, canonical isoform): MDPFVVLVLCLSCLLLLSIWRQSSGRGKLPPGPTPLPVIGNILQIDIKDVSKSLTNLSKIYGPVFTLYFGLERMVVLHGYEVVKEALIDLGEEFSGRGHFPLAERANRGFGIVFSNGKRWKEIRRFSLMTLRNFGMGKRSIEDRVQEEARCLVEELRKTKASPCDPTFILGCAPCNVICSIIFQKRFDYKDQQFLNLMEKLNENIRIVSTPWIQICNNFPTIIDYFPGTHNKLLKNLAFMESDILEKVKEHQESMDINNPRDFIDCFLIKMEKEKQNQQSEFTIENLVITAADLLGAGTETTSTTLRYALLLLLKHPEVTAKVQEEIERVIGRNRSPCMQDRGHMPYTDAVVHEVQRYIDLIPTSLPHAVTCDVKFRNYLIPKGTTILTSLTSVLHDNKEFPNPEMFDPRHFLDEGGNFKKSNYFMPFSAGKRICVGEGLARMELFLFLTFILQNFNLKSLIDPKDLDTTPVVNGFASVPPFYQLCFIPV

CYP2D6 = CYP2D6 (Homo sapiens, UniProt P10635); assay: in vitro; settings: both, microsomes
Chain of CYP2D6 (P10635 whole entry): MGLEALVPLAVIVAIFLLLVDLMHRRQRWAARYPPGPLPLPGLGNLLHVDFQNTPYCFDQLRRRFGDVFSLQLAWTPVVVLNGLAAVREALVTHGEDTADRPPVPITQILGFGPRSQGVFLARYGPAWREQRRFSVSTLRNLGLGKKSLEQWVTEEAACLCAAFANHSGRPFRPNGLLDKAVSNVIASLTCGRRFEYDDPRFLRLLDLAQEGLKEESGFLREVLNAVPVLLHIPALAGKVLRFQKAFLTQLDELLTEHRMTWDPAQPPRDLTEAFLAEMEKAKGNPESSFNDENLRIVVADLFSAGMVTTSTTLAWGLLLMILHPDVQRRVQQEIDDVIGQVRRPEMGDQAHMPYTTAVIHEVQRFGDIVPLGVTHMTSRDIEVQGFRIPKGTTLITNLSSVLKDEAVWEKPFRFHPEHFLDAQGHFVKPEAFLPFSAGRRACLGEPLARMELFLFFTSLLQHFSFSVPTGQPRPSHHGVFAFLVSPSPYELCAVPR

CYP3A4 [1] = molecular target: T2, CYP3A4 (Homo sapiens, UniProt P08684); settings: both, 10 min
T2 sequence (P08684 whole entry): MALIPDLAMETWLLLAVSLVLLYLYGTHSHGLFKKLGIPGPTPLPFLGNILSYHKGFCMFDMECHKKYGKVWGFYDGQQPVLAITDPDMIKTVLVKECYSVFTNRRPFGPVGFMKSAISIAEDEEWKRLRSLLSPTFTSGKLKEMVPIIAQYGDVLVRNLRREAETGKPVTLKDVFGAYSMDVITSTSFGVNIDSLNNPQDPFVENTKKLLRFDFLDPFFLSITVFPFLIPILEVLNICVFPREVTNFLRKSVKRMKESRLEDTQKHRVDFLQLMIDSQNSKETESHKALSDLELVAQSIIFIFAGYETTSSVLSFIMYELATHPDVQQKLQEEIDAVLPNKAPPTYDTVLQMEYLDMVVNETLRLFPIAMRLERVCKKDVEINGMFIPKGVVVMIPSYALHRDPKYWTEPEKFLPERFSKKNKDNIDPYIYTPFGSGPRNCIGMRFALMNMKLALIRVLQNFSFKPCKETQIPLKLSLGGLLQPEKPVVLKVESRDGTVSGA

CYP2E1 [2] = molecular target: T3, CYP2E1 (Homo sapiens, UniProt P05181); assay: in vitro; settings: both, microsomes
T3 sequence (P05181 whole entry, canonical isoform): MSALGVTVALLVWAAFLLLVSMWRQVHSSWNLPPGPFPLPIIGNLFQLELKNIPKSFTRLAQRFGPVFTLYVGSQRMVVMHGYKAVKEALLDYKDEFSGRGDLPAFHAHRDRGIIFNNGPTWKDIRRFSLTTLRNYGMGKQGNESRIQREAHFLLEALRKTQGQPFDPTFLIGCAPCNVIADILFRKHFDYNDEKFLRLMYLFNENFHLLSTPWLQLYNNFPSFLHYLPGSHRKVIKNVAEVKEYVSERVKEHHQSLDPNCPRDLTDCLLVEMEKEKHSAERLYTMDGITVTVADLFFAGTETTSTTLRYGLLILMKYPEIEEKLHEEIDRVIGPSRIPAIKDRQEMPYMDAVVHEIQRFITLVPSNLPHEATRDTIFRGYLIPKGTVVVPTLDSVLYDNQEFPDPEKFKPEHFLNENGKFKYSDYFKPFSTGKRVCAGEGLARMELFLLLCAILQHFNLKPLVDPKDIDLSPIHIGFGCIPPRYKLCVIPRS

CYP2E1 [3] = molecular target: T3, CYP2E1; assay: Cytochrome P450 isoform inhibition in human hepatic microsomes, chlorzoxazone (Example 18); settings: 0.33 to 33.3 μM
CYP2C9 [4] = molecular target: T4, CYP2C9 (Homo sapiens, UniProt P11712); assay: in vitro; settings: both, microsomes
T4 sequence (P11712 whole entry): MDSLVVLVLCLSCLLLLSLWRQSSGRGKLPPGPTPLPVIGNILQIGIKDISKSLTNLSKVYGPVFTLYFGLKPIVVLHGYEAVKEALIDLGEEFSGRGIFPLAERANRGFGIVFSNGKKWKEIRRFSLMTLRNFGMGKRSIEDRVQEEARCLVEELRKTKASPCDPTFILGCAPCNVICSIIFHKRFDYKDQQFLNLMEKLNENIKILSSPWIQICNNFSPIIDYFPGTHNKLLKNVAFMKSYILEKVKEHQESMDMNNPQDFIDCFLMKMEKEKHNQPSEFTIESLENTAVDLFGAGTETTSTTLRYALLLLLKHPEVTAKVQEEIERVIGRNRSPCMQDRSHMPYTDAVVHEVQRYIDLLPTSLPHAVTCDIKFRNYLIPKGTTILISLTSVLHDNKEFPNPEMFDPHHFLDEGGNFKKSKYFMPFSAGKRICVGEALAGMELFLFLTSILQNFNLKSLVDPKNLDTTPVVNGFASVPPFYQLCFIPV

CYP2C9 [5] = molecular target: T4, CYP2C9; settings: for Tolbutamide 4-OH TB Production: both, human, 40 min
CYP3A4 [6] = molecular target: T2, CYP3A4; assay: in vitro; settings: both, microsomes
[7] = Pharmacokinetic study in SD rats, chiral HPLC of plasma halofenic acids (Example 14); type: in vivo; settings: single oral dose of (−) halofenate 50 mg/kg
Procedure: Male 225-250 g SD rats were purchased from Charles River. […] A catheter was placed in the left carotid artery under sodium pentobarbital (50 mg/kg i.p.) and animals were allowed to recover for 2 days before treatment. […] The gavage volume was 5 ml/kg. Blood samples were collected at 1, 2, 4, 6, 8, 12, 24, 48, 72, 96 and 120 hours post dose. The plasma samples were analyzed for each enantiomeric acid ((−) halofenic acid and (+) halofenic acid) by a chiral specific HPLC assay, since the esters are prodrugs, which are designed to convert to their respective enantiomeric acids in vivo.

CYP2A6 [8] = molecular target: T5, CYP2A6 (Homo sapiens, UniProt P11509); settings: both, 20 min
T5 sequence (P11509 1-494): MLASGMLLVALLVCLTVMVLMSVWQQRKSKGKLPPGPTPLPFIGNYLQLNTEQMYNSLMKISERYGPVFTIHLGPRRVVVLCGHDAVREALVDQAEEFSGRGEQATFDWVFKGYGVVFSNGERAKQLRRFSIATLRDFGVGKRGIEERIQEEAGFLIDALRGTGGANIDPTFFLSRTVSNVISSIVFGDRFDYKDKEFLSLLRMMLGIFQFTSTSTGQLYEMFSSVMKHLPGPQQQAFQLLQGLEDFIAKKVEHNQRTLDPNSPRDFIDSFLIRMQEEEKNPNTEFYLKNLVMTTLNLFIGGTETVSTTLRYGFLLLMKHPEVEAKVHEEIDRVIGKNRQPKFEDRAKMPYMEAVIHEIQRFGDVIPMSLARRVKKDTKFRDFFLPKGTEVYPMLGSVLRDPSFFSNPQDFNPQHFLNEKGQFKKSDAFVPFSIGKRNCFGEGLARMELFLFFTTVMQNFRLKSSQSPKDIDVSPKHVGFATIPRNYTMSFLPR

CYP2A6 [9] = molecular target: T5, CYP2A6; assay: in vitro; settings: both, microsomes

Question: With O=C(O)C(Oc1cccc(C(F)(F)F)c1)c1ccc(Cl)cc1 (single isomer, unassigned; (-)) [(−) halofenic acid, (−) 4-chlorophenyl-(3-trifluoromethylphenoxy)-acetic acid] as the compound, how does the “Phenacetin AC Production” value (CYP1A2; 0.33 μM) read?
Answer: 116 ± 2 pmol/mg protein/min

Question: What about the “Phenacetin AC Production” value (CYP1A2; 1 μM) of the same compound?
Answer: 118 ± 2 pmol/mg protein/min

Question: What about the “Phenacetin AC Production” value (CYP1A2; 3.3 μM) of the same compound?
Answer: 119 ± 2 pmol/mg protein/min

Question: And the “Phenacetin AC Production” value (CYP1A2; 10 μM)?
Answer: 119 ± 2 pmol/mg protein/min

Question: And the “Phenacetin AC Production” value (CYP1A2; 33.3 μM)?
Answer: 119 ± 2 pmol/mg protein/min

Question: And the inhibition at 30 min, 0.33 μM (CYP2C19; both sexes, human, pooled human hepatic microsomes, probe S-mephenytoin 50 μM, test article 0.33 μM)?
Answer: 4%

Question: And the inhibition at 30 min, 1 μM (CYP2C19; both sexes, human, pooled human hepatic microsomes, probe S-mephenytoin 50 μM, test article 1.0 μM)?
Answer: 5%

Question: What about the inhibition at 30 min, 3.3 μM (CYP2C19; both sexes, human, pooled human hepatic microsomes, probe S-mephenytoin 50 μM, test article 3.3 μM) of the same compound?
Answer: 15%

Question: What about the inhibition at 30 min, 10 μM (CYP2C19; both sexes, human, pooled human hepatic microsomes, probe S-mephenytoin 50 μM, test article 10 μM) of the same compound?
Answer: 23%

Question: What about the inhibition at 30 min, 33.3 μM (CYP2C19; both sexes, human, pooled human hepatic microsomes, probe S-mephenytoin 50 μM, test article 33.3 μM) of the same compound?
Answer: 43%

Question: And the IC50 (CYP2C19; human hepatic microsomes 1 mg/mL, 50 μM S-mephenytoin, 30 minutes, read-out: IC50, 4-hydroxymephenytoin production (CYP2C19))?
Answer: > 33.3 µM

Question: What about the inhibition at 15 min, 0.33 μM (CYP2D6) of the same compound?
Answer: 3%

Question: What about the inhibition at 15 min, 1 μM (CYP2D6) of the same compound?
Answer: 1%

Question: What about the inhibition at 15 min, 3.3 µM (CYP2D6) of the same compound?
Answer: 6%

Question: What about the inhibition at 15 min, 10 µM (CYP2D6) of the same compound?
Answer: 4%

Question: What about the inhibition at 15 min, 33.3 µM (CYP2D6) of the same compound?
Answer: 5%

Question: What about the “Testosterone 6β-OHT Production” value (CYP3A4 [1]; 0.33 µM) of the same compound?
Answer: 1816 ± 12 pmol/mg protein/min

Question: What about the “Testosterone 6β-OHT Production” value (CYP3A4 [1]; 1 µM) of the same compound?
Answer: 1851 ± 14 pmol/mg protein/min

Question: And the “Testosterone 6β-OHT Production” value (CYP3A4 [1]; 3.3 µM)?
Answer: 1810 ± 3 pmol/mg protein/min

Question: What about the “Testosterone 6β-OHT Production” value (CYP3A4 [1]; 10 µM) of the same compound?
Answer: 1819 ± 4 pmol/mg protein/min

Question: And the “Testosterone 6β-OHT Production” value (CYP3A4 [1]; 33.3 µM)?
Answer: 1816 ± 6 pmol/mg protein/min

Question: And the inhibition at 20 min, 0.33 μM (CYP2E1 [2])?
Answer: 3%

Question: What about the inhibition at 20 min, 1 μM (CYP2E1 [2]) of the same compound?
Answer: 1%

Question: What about the inhibition at 20 min, 3.3 μM (CYP2E1 [2]) of the same compound?
Answer: 3%

Question: What about the inhibition at 20 min, 10 μM (CYP2E1 [2]) of the same compound?
Answer: 1%

Question: And the inhibition at 20 min, 33.3 μM (CYP2E1 [2])?
Answer: 3%

Question: What about the “inhibition of CYP2E1, in words” value (CYP2E1 [3]) of the same compound?
Answer: not observed

Question: And the inhibition at 40 min, 0.33 μM (CYP2C9 [4])?
Answer: 5%

Question: What about the inhibition at 40 min, 1 μM (CYP2C9 [4]) of the same compound?
Answer: 10%

Question: What about the inhibition at 40 min, 3.3 μM (CYP2C9 [4]) of the same compound?
Answer: 21%

Question: What about the inhibition at 40 min, 10 μM (CYP2C9 [4]) of the same compound?
Answer: 47%

Question: And the inhibition at 40 min, 33.3 μM (CYP2C9 [4])?
Answer: 71%

Question: And the “IC50 for CYP2C9 in Example 18 relative to that reported in Example 7” value (CYP2C9 [5])?
Answer: approximately three times

Question: What about the “Tolbutamide 4-OH TB Production” value (CYP2C9 [5]; 0.33 μM) of the same compound?
Answer: 41.0 ± 0.9 pmol/mg protein/min

Question: What about the “Tolbutamide 4-OH TB Production” value (CYP2C9 [5]; 1 μM) of the same compound?
Answer: 38.6 ± 0.5 pmol/mg protein/min

Question: And the “Tolbutamide 4-OH TB Production” value (CYP2C9 [5]; 3.3 μM)?
Answer: 34.2 ± 0.2 pmol/mg protein/min

Question: And the “Tolbutamide 4-OH TB Production” value (CYP2C9 [5]; 10 μM)?
Answer: 22.7 ± 0.6 pmol/mg protein/min

Question: What about the “Tolbutamide 4-OH TB Production” value (CYP2C9 [5]; 33.3 μM) of the same compound?
Answer: 12.7 ± 0.2 pmol/mg protein/min

Question: What about the inhibition at 10 min, 0.33 µM (CYP3A4 [6]) of the same compound?
Answer: 1.5%

Question: And the inhibition at 10 min, 1 µM (CYP3A4 [6])?
Answer: 0%

Question: What about the inhibition at 10 min, 3.3 µM (CYP3A4 [6]) of the same compound?
Answer: 1.8%

Question: And the inhibition at 10 min, 10 µM (CYP3A4 [6])?
Answer: 1.3%

Question: What about the inhibition at 10 min, 33.3 µM (CYP3A4 [6]) of the same compound?
Answer: 1.5%

Question: And the concentration at 96 h ([7]; male, SD, rat, plasma, oral, 50 mg/kg, individual rats 8, 11)?
Answer: 31.1 µg/mL

Question: What about the concentration at 120 h ([7]; male, SD, rat, plasma, oral, 50 mg/kg, rat 8) of the same compound?
Answer: 20.3 µg/mL

Question: What about the “plasma concentration at 0 hour” value ([7]; individual rats 8, 9, 11) of the same compound?
Answer: BQL (BQL = Below Quantifiable Limit < 1.00 μg/mL)

Question: And the “plasma concentration at 1 hour” value ([7]; individual rats 8, 9, 11)?
Answer: 81.2 µg/mL and 23.7 µg/mL and 61.0 µg/mL

Question: What about the “plasma concentration at 2 hours” value ([7]; individual rats 8, 9, 11) of the same compound?
Answer: 100.1 µg/mL and 30.4 µg/mL and 87.8 µg/mL

Question: What about the “plasma concentration at 4 hours” value ([7]; individual rats 8, 9, 11) of the same compound?
Answer: 122.3 µg/mL and 36.9 µg/mL and 94.5 µg/mL

Question: And the “plasma concentration at 6 hours” value ([7]; individual rats 8, 9, 11)?
Answer: 128.3 µg/mL and 56.5 µg/mL and 116.3 µg/mL

Question: And the “plasma concentration at 8 hours” value ([7]; individual rats 8, 9, 11)?
Answer: 128.2 µg/mL and 79.0 µg/mL and 127.8 µg/mL

Question: And the “plasma concentration at 12 hours” value ([7]; individual rats 8, 9, 11)?
Answer: 135.3 µg/mL and 80.6 µg/mL and 104.8 µg/mL

Question: What about the “plasma concentration at 24 hours” value ([7]; individual rats 8, 9, 11) of the same compound?
Answer: 82.5 µg/mL and 73.1 µg/mL and 66.5 µg/mL

Question: And the “plasma concentration at 48 hours” value ([7]; individual rats 8, 9, 11)?
Answer: 56.2 µg/mL and 44.5 µg/mL and 47.1 µg/mL

Question: And the “plasma concentration at 72 hours” value ([7]; individual rats 8, 9, 11)?
Answer: 39.7 µg/mL and 37.4 µg/mL and 30.8 µg/mL

Question: What about the “plasma concentration at 96 hours” value ([7]; individual rats 8, 11) of the same compound?
Answer: 24.6 µg/mL

Question: What about the “Coumarin 7-HC Production” value (CYP2A6 [8]; 0.33 μM) of the same compound?
Answer: 33.3 ± 0.7 pmol/mg protein/min

Question: What about the “Coumarin 7-HC Production” value (CYP2A6 [8]; 1 μM) of the same compound?
Answer: 32.6 ± 0.7 pmol/mg protein/min

Question: And the “Coumarin 7-HC Production” value (CYP2A6 [8]; 3.3 μM)?
Answer: 32.1 ± 0.7 pmol/mg protein/min

Question: And the “Coumarin 7-HC Production” value (CYP2A6 [8]; 10 μM)?
Answer: 33.1 ± 0.7 pmol/mg protein/min

Question: What about the “Coumarin 7-HC Production” value (CYP2A6 [8]; 33.3 μM) of the same compound?
Answer: 32.3 ± 0.7 pmol/mg protein/min

Question: And the inhibition at 20 min, 0.33 μM (CYP2A6 [9])?
Answer: -4%

Question: What about the inhibition at 20 min, 1 μM (CYP2A6 [9]) of the same compound?
Answer: -2%

Question: What about the inhibition at 20 min, 3.3 μM (CYP2A6 [9]) of the same compound?
Answer: 0%

Question: What about the inhibition at 20 min, 10 μM (CYP2A6 [9]) of the same compound?
Answer: -3%

Question: And the inhibition at 20 min, 33.3 μM (CYP2A6 [9])?
Answer: -1%
